Data reported in patent publication US20190365784A1, “USE OF BRASSINOSTEROID ANALOGS FOR THE TREATMENT OF DERMAL DISORDERS BY SELECTIVELY MODULATING LIVER X RECEPTORS (LXR) AND DERMAL DISEASE TREATMENT BY BRASSINOSTEROID ANALOGS ACTING AS SELECTIVE LIVER X RECEPTOR (LXR) MODULATORS” (CONSEJO NACIONAL DE INVESTIGACIONES CIENTÍFICAS Y TÉCNICAS …, priority 2015, published 2019).

What was measured:
LXR-alpha [1] = molecular target: T1, LXR-alpha (Homo sapiens, UniProt Q13133); experiment: LXR-alpha/RXR LRE-luciferase reporter in transfected HEK293T cells; type: cell-based; conditions: GW3965 1 uM, 18 h
T1 sequence (Q13133 1-447): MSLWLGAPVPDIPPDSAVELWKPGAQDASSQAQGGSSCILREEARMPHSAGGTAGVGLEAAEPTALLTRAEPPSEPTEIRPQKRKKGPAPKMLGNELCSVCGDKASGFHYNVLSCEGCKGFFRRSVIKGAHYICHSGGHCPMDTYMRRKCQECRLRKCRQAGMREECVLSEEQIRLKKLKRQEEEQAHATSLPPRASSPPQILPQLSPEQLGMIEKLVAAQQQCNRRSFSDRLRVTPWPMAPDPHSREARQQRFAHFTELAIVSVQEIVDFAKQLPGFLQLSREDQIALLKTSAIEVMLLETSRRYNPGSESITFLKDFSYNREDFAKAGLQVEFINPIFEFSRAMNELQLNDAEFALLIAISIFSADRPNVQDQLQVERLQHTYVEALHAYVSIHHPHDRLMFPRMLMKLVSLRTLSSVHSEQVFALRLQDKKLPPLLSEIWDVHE
T1 sequence (P19793 1-462 partner): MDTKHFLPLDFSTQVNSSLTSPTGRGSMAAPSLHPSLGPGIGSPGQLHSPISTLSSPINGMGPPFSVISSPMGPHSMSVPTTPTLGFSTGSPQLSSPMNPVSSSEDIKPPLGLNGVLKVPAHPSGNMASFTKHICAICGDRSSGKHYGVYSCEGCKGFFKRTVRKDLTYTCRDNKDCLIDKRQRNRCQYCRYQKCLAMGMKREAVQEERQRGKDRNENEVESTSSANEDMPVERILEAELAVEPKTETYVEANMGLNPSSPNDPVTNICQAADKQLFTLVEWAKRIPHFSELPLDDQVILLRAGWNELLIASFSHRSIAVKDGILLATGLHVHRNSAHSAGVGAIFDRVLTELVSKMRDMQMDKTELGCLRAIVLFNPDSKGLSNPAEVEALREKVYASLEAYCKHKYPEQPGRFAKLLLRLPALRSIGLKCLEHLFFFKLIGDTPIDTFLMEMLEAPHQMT
From the text: Since we had previously shown that the beneficial effects of the compounds of the invention are independent of glucocorticoid receptor (GR) activation, we set forth to investigate if they might exert their actions through activation of liver X receptors (LXR). For this purpose we used cultured cells transiently transfected with LXR-alpha, the retinoid X receptor (RXR) and a LXR response element-luciferase reporter (LRE-LUC). A. Human embryonic kidney cells (HEK293T; 5×10^5 cells/well) were cultured in DMEM medium supplemented with 10% (v/v) fetal bovine serum, 100 ug/ml of streptomycin, 100 IU/ml of penicillin and 2 mM glutamine. For the transient transfections, the cell cultures were added with plasmids carrying LXR-alpha (pLXR-alpha; 0.6 ug), the retinoid X receptor (pRXR; 0.2 ug), a LXR response element-luciferase reporter (pRE-LUC; 0.7 ug) and beta-galactosidase gene (pRSV-LacZ; 0.6 ug) as a transfection control, using Lipofectamine 2000 (Invitrogen). […] Compounds III to VI are […] analogs bearing a fluorine atom at C-6. To assess LXR-alpha activation, at the end of the incubation period luciferase activity was measured by use of a luciferase assay system (Promega). The results of three independent assays, carried out in duplicate for each condition, are reported.

TNF-alpha = TNF-alpha expression in UV-irradiated HaCaT cells (real time PCR); type: cell-based, human; conditions: 10 uM
Experimental: (§1) HaCaT cells—a human immortalized keratinocyte cell line—were exposed to 15 J/m^2 UVB (254 nm) irradiation. Twenty four hours after irradiation, the cells were harvested and RNA isolated to assess the expression of LXR-alpha, LXR-beta, ABCA1, TNF-alpha, IL-6, and IL-8 genes. HaCaT cells were cultured in DMEM supplemented with 10% (v/v) fetal bovine serum, penicillin (100 U/mL), streptomycin ([…]) and glutamine (2 mM). […] The expressions of ABCA1, TNF-alpha, IL-6, IL-8, LXR-alpha, and LXR-beta were normalized according to glyceraldehyde-3-phosphate dehydrogenase (GAPDH) expression. The results of three independent assays, carried out in duplicate for each condition, are reported.

IL-8 = IL-8 expression in UV-irradiated HaCaT cells (real time PCR); type: cell-based, human; conditions: 10 uM, 24 h after UV, normalized to GAPDH
Experimental: as §1

ABCA1 [2] = experiment: ABCA1 expression in HaCaT cells (real time PCR); type: cell-based, human; conditions: 10 uM
Experimental: as §1, with “HaCaT cells—a human immortalized keratinocyte cell line—were exposed to 15 J/m^2 UVB (254 nm) irradiation.” left out

LXR-alpha [3] = experiment: LXR-alpha expression in UV-irradiated HaCaT cells (real time PCR); type: cell-based, human; conditions: 10 uM, 24 h after UV, vs. DMSO (UV, 24 h) and GW3965 (UV, 24 h)
Experimental: as §1

[4] = test system: fatty acid synthase (FAS); experiment: FAS expression in HL-60 cells (real time PCR); type: cell-based, human; conditions: GW3965 1 uM, 6 h
Experimental: (§2) To investigate the effects of Compounds I and II on the expression of three genes involved in lipid metabolism [fatty acid synthase (FAS); and two ATP-dependent cholesterol and phospholipid transporters, such as ABCA1 and ABCG1], human promyelocytic leukemia cells (HL-60) that endogenously express LXR-alpha and LXR-beta were incubated in the presence of either Comp I or Comp II (10 uM), or GW3965 (1 uM) for 6 h. mRNA levels for FAS, ABCA1 and ABCG1 were determined by real time PCR and results were normalized to GAPDH expression. HL-60 (10^6 cells/well) were cultured in RPMI medium supplemented with 5% (v/v) fetal bovine serum, penicillin (100 IU/mL), streptomycin (100 ug/mL) y cyprofloxacin (0.4 ug/mL). […] To obtain RNA, at the end of the incubation the cells were collected by centrifugation at 1,000 rpm for 2 min, washed with phosphate buffered saline, and lysed in 300 ul TRIZOL (Invitrogen). RNA samples were suspended in […] of RNAse free water, and their concentration determined (NanoDrop spectrophotometer). […] To obtain cDNA, 1 ug of total RNA was denatured by incubating for 5 min at 70° C., before the addition of a mixture containing 0.5 ug oligo-dT primers and 25 ng/ml of random primers (Invitrogen), 1.0 mM dNTPs (Invitrogen), and 200 U M-MLV reverse transcriptase (Promega); after this the mixture was retrotranscribed at 37° C. for 60 min, followed by an incubation at 95° C. for 5 min to inactivate the enzyme. For the real time PCR amplification (Stratagene Thermal Cycler), cDNA samples were diluted 1/5 to 1/10 depending on the target amplification product. Calibration curves were obtained by use of eight successive 1:2 sample dilutions. Amplifications were carried out in a 25 ul final volume (5 ul cDNA sample plus 20 ul of reaction mixture) in the presence of either 3, 4 or 5 mM MgCl2 (depending on the amplified sequence), 0.25 mM dNTPs (Invitrogen), 1.25 U Taq polymerase (Invitrogen), 1 μM of the specific primers according to the target amplification sequence, and 0.025 μl SYBR Green (Roche). […]

ABCA1 [5] = experiment: ABCA1 expression in HL-60 cells (real time PCR); type: cell-based, human; conditions: GW3965 1 uM, 6 h
Experimental: as §2

ABCG1 [6] = experiment: ABCG1 expression in HL-60 cells (real time PCR); type: cell-based, human; conditions: GW3965 1 uM, 6 h
Experimental: as §2

[7] = test system: fatty acid synthase (FAS or FASN); experiment: FASN expression in HepG2 cells (real time PCR); type: cell-based, human; conditions: GW3965 1 uM, 6 h
Experimental: (§3) The cells were incubated for 6 h in the presence of either Compound I (10 uM), or Compound II (10 uM), or the commercial LXR agonist GW3965 (1 uM), or Vehicle [DMSO, 0.1% (v/v)]). To obtain RNA, at the end of the incubation the cells were collected by centrifugation at 1,000 rpm for 2 min, washed with phosphate buffered saline, and lysed in 300 ul TRIZOL (Invitrogen). RNA samples were suspended in ul of RNAse free water, and their concentration determined (NanoDrop spectrophotometer). The ratio of the absorbance at 260 and 280 nm was used to assess RNA purity of an RNA preparation, with a value of 1.8-2.0 indicating pure RNA. To obtain cDNA, 1 ug of total RNA was denatured by incubating for 5 min at 70° C., before the addition of a mixture containing 0.5 ug oligo-dT primers and 25 ng/ml of random primers (Invitrogen), 1.0 mM dNTPs (Invitrogen), and 200 U M-MLV reverse transcriptase (Promega); after this the mixture was retrotranscribed at 37° C. for 60 min, followed by an incubation at 95° C. for 5 min to inactivate the enzyme. For the real time PCR amplification (Stratagene Thermal Cycler), cDNA samples were diluted 1/5 to 1/10 depending on the target amplification product. Calibration curves were obtained by use of eight successive 1:2 sample dilutions. Amplifications were carried out in a 25 ul final volume (5 ul cDNA sample plus 20 ul of reaction mixture) in the presence of either 3, 4 or 5 mM MgCl2 (depending on the amplified sequence), 0.25 mM dNTPs (Invitrogen), 1.25 U Taq polymerase (Invitrogen), 1 μM of the specific primers according to the target amplification sequence, and 0.025 μl SYBR Green (Roche). Melting curves were used to assess the specificity of the amplification products. […]

SRBEP-1 = SRBEP-1 expression in HepG2 cells (real time PCR); type: cell-based, human; conditions: GW3965 1 uM, 6 h
Experimental: as §3

ABCG1 [8] = experiment: ABCG1 expression in HepG2 cells (real time PCR); type: cell-based, human; conditions: GW3965 1 uM, 6 h
Experimental: as §3

LXR-alpha [9] = experiment: LXR-alpha expression in HepG2 cells (real time PCR); type: cell-based, human; conditions: GW3965 1 uM, 6 h
Experimental: The cells were incubated for 6 h in the presence of either Compound I (10 uM), or Compound II (10 uM), or the commercial LXR agonist GW3965 (1 uM), or Vehicle [DMSO, 0.1% (v/v)]). To obtain RNA, at the end of the incubation the cells were collected by centrifugation at 1,000 rpm for 2 min, washed with phosphate buffered saline, and lysed in 300 ul TRIZOL (Invitrogen). RNA samples were suspended in ul of RNAse free water, and their concentration determined (NanoDrop spectrophotometer). The ratio of the absorbance at 260 and 280 nm was used to assess RNA purity of an RNA preparation, with a value of 1.8-2.0 indicating pure RNA. To obtain cDNA, 1 ug of total RNA was denatured by incubating for 5 min at 70° C., before the addition of a mixture containing 0.5 ug oligo-dT primers and 25 ng/ml of random primers (Invitrogen), 1.0 mM dNTPs (Invitrogen), and 200 U M-MLV reverse transcriptase (Promega); after this the mixture was retrotranscribed at 37° C. for 60 min, followed by an incubation at 95° C. for 5 min to inactivate the enzyme. For the real time PCR amplification (Stratagene Thermal Cycler), cDNA samples were diluted 1/5 to 1/10 depending on the target amplification product. Calibration curves were obtained by use of eight successive 1:2 sample dilutions. […]

Q: With `O=C(O)Cc1cccc(OCCCN(Cc2cccc(C(F)(F)F)c2Cl)CC(c2ccccc2)c2ccccc2)c1` [GW3965, reference compound] as the compound, how does the “LXR-alpha driven gene expression, increase compared with vehicle-treated cells” value (LXR-alpha [1]) read?
A: Its value is 3 fold.

Q: What about the “TNF-alpha expression versus Comp I-treated cells” value (TNF-alpha; 24 h after UV) of the same compound?
A: The value was “significantly higher”.

Q: And the “TNF-alpha expression versus DMSO-treated cells” value (TNF-alpha; 24 h after UV (254 nm, 15 J/m^2), normalized to GAPDH)?
A: Its value is “significantly lower”.

Q: What about the “IL-8 expression versus DMSO-treated cells” value (IL-8) of the same compound?
A: The value was “significantly lower”.

Q: What about the “induction of ABCA1 expression versus Comp I- or Comp II-treated cells” value (ABCA1 [2]; HaCaT, 24 h after UV exposure) of the same compound?
A: Its value is “stronger”.

Q: And the “induction of ABCA1 expression versus Comp I- or Comp II-treated cells” value (ABCA1 [2]; non-irradiated HaCaT)?
A: Its value is “stronger”.

Q: What about the LXR-alpha expression (LXR-alpha [3]) of the same compound?
A: The LXR-alpha expression was “higher in HaCaT incubated in the presence of DMSO compared with non-irradiated cells and GW3965-treated cells”.

Q: What about the “FAS expression higher than in vehicle-treated controls” value [4] of the same compound?
A: The value was 1.8 times.

Q: And the “ABCA1 expression higher than in vehicle-treated controls” value (ABCA1 [5])?
A: The value was about 3 times.

Q: And the “ABCG1 expression higher than in vehicle-treated controls” value (ABCG1 [6])?
A: Its value is about 10 times.

Q: And the “FASN expression higher than in vehicle (DMSO) treated controls” value [7]?
A: Its value is 3.7 times.

Q: What about the “SRBEP-1 expression higher than in vehicle (DMSO) treated controls” value (SRBEP-1) of the same compound?
A: The value was 4.6 times.

Q: What about the “ABCG1 expression higher than in vehicle (DMSO) treated controls” value (ABCG1 [8]) of the same compound?
A: The value was 60 times.

Q: And the “induction of LXR-alpha expression compared with DMSO treated HepG2” value (LXR-alpha [9])?
A: The value was 3.5 times.
